According to patent US20240109893A1, “PREPARATION AND APPLICATION METHOD OF HETEROCYCLIC COMPOUNDS AS KRAS INHIBITOR” (SHANGHAI KECHOW PHARMA, INC., priority 2020, published 2024):
pIC50: −log10 of the molar value.

How the values were obtained:
H358 cells = experiment: Cell activity experiment: activity test of H358 cells (MTT, 5 days); type: cell-based; details: 5 days incubation, absorbance 492 nm
Summary of the method: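 Viability was read by MTT: 4 h dye incubation, DMSO solubilisation, absorbance at 492 nm. This followed 5 days' treatment (37° C., 5% CO2) of H358 cells, pre-grown 24 h, with eight-point 3-fold dilutions up to 10000 nM final, 0.5% DMSO final, triplicate wells.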

KRAS G12C-GDP = KRAS G12C-GDP (Homo sapiens (Human), UniProt P01116, G12C); experiment: KRAS G12C-GDP exchange test (SOS/cRAF/GTP, HTRF); type: biochemical; details: 1 h premix with compound, 2 h reaction with SOS, cRAF, GTP
Procedure: 2. A mixture of SOS (Pharmaron, ZZY-20190823), cRAF (Pharmaron, ZZY-20190823), GTP (Sigma, A6885-100MG), MAb Anti 6HIS-d2/MAb Anti GST-Eu (Cisbio, 61HISDLB/61GSTKLB) was added for a catalyzed reaction for 2 h.
3. The fluorescence signals of the emitted light at 615 nm and 665 nm under 320 nm excitation light were read by Biotek Microplate Reader (Synergy4).
4. The IC50 (median inhibitory concentration) of the compound was obtained by the following non-linear fitting formula: Y=Bottom+(Top−Bottom)/(1+10^((Log IC50−X)*Hill Slope)), and the data were analyzed by Graphpad 6-0 software.

[1] = Pharmacokinetic experiment in SD rats; type: in vivo; details: male, Sprague-Dawley, rat, plasma, po, 10 mg/kg; read-out: Oral bioavailability, F %
Procedure: Pharmacokinetic Experiment in SD Rats:
1. SPF male rats were randomly divided into groups. The compounds to be tested were separately administered by intravenous injection and oral gavage, with 3 animals for each compound to be tested in each mode of administration. The administration solvent was 5% DMSO+10% Solutol+85% normal saline or 85% PBS, and the substances to be tested were dissolved in the solvent to obtain clear solutions. Administration concentration and volume: 1) a single intravenous injection of 0.6 mg/mL of the compound to be tested, with an administration volume of 5 mL/kg and an administration dosage of 3 mg/kg; and 2) a single oral gavage of 1 mg/mL of the compound to be tested, with an administration volume of 10 mL/kg and an administration dosage of 10 mg/kg. The rats were fasted overnight (10-14 h) before administration and fed 4 h after administration.
2. Blood was collected via the jugular vein or by other appropriate methods at 200 μL per time point and anticoagulated with K2-EDTA, and after collection, the blood was placed on ice and centrifuged for plasma within 1 h (centrifugation conditions: 6800 g, 6 min 2-8° C.). The points for blood sampling from the animals in the intravenous injection group were respectively: before administration, and 5 min, 15 min, 30 min, 1 h, 2 h, 4 h, 8 h, and 24 h after administration; and the points for blood sampling from the animals in the oral administration group were respectively: before administration, and 15 min, 30 min, 1 h, 2 h, 4 h, 6 h, 8 h, and 24 h after administration.
3. The blood concentration was detected, and the pharmacokinetic parameter AUC(0-t) was calculated by Phoenix WinNonlin based on the blood concentration data at various time points. When the pharmacokinetic parameters were calculated, the BLQ before Cmax (including ‘No peak’) was calculated as 0: and BLQ after Cmax (including ‘No peak’) was not involved in the calculation.

Row | pIC50 (H358 cells) | pIC50 (KRAS G12C-GDP) | bioavailability [1] | pIC50 (H358 cells; Homo sapiens, NCI-H358, 120 h) | Molecule
1 | 7.21 | 8.88 | – | – | 2-((S)-1-acryloyl-4-(6-fluoro-7-(8-chloro-7- fluoronaphthalen-1-yl)-2-(((S)-1-methylpyrrolidin-2- yl))methoxy)quinazolin-4-yl)piperazin-2-yl)acetonitrile [Example 395]
2 | 7.92 | 9.10 | – | – | C=CC(=O)N1CCN(c2nc(OC[C@@H]3CCCN3C)nc3c(F)c(-c4cccc5c4CC4CC54)ncc23)C[C@@H]1CC#N (single isomer, unassigned) [Example 873]
3 | 8.40 | 9.23 | 16.9% | – | C=C(F)C(=O)N1CCN(c2nc(OC[C@@]34CCCN3C[C@H](F)C4)nc3c(F)c(-c4cccc5c4CC4CC54)ncc23)C[C@@H]1CC#N (single isomer, unassigned) [Example 879]
4 | 8.47 | 9.15 | – | – | C=CC(=O)N1CCN(c2nc(OC[C@@H]3CCCN3C)nc3c(F)c(-c4cccc5c4CC4CC54)ccc23)C[C@@H]1CC#N (single isomer, unassigned) [Example 881]
5 | 7.97 | 9.31 | – | – | C=C(F)C(=O)N1CCN(c2nc(OC[C@@H]3CCCN3C)nc3c(F)c(-c4cccc5c4CC4CC54)ccc23)C[C@@H]1CC#N (single isomer, unassigned) [Example 883]
6 | 8.58 | 8.99 | 25.9% | – | C=C(F)C(=O)N1CCN(c2nc(OC[C@@]34CCCN3C[C@H](F)C4)nc3c(F)c(-c4cccc5c4CC4CC54)ccc23)C[C@@H]1CC#N (single isomer, unassigned) [Example 887]
7 | – | 7.69 | – | 7.82 | C=CC(=O)N1CCN(c2nc(OC[C@@H]3CCCN3C)nc3c(F)c(-c4cccc5c4CCCC5)ncc23)C[C@@H]1CC#N [Example 1, 2-((S)-1-acryloyl-4-(8-fluoro-2-(((S)-1-methylpyrrolidin-2-yl)methoxy)-7-(5,6,7,8-tetrahydronaphthalen-1-yl)pyridino[4,3-d]pyrimidin-4-yl)piperazin-2-yl)acetonitrile]
8 | – | 7.98 | – | 9.00 | C=CC(=O)N1CCN(c2nc(OCC34CCCN3CCC4)nc3c(F)c(-c4cccc5c4CCCC5)ncc23)C[C@@H]1CC#N [Example 2, (S)-2-(1-acryloyl-4-(8-fluoro-2-((tetrahydro-1H-pyrrolizin-7a(5H)-yl)methoxy)-7-(5,6,7,8-tetrahydronaphthalen-1-yl)pyridino[4,3-d]pyrimidin-4-yl)piperazin-2-yl)acetonitrile]
9 | – | 7.86 | – | 8.46 | C=C(F)C(=O)N1CCN(c2nc(OCC34CCCN3CCC4)nc3c(F)c(-c4cccc5c4CCCC5)ncc23)C[C@@H]1CC#N [Example 3, (S)-2-(4-(8-fluoro-2-((tetrahydro-1H-pyrrolizin-7a(5H)-yl)methoxy)-7-(5,6,7,8-tetrahydronaphthalen-1-yl)pyridino[4,3-d]pyrimidin-4-yl)-1-(2-fluoroacryloyl)piperazin-2-yl)acetonitrile]
10 | – | 8.10 | – | 7.22 | C=C(F)C(=O)N1CC[C@@H]2[C@H]1CN2c1nc(OC[C@@H]2CCCN2C)nc2c(F)c(-c3cccc4c3CCCC4)ncc12 [Example 10, 2-fluoro-1-((1R,5R)-6-(8-fluoro-2-(((S)-1-methylpyrrolidin-2-yl)methoxy)-7-(5,6,7,8-tetrahydronaphthalen-1-yl)pyridino[4,3-d]pyrimidin-4-yl)-2,6-diazabicyclo[3.2.0]hept-2-yl)prop-2-en-1-one]
11 | – | 8.78 | – | 7.52 | C=CC(=O)N1CCN(c2nc(OC[C@@H]3CCCN3C)nc3c(F)c(-c4ccc(F)c5c4CCCC5)ncc23)C[C@@H]1CC#N [Example 17, 2-((S)-1-acryloyl-4-(8-fluoro-7-(4-fluoro-5,6,7,8-tetrahydronaphthalen-1-yl)-2-(((S)-1-methylpyrrolidin-2-yl)methoxy)pyridino[4,3-d]pyrimidin-4-yl)piperazin-2-yl)acetonitrile]
12 | – | 8.87 | – | 7.82 | C=CC(=O)N1CCN(c2nc(OC[C@@H]3CCCN3C)nc3cc(-c4cccc5cccc(Cl)c45)ccc23)C[C@@H]1CC#N [Example 73, 2-((S)-1-acryloyl-4-(7-(8-chloronaphthalen-1-yl)-2-(((S)-1-methylpyrrolidin-2-yl)methoxy)quinazolin-4-yl)piperazin-2-yl)acetonitrile]
13 | – | 8.05 | – | 7.52 | C=CC(=O)N1CCN(c2nc(OC[C@@H]3CCCN3C)nc3nc(-c4cccc5cccc(Cl)c45)ccc23)C[C@@H]1CC#N [Example 254, 2-((S)-1-acryloyl-4-(7-(8-chloronaphthalen-1-yl)-2-(((S)-1-methylpyrrolidin-2-yl)methoxy)pyridino[2,3-d]pyrimidin-4-yl)piperazin-2-yl)acetonitrile]
14 | 6.45 | 8.00 | – | – | C=CC(=O)N1CCN(c2nc(OC[C@@H]3CCCN3C)nc3nc(-c4cccc5c4CCCC5)ccc23)C[C@@H]1CC#N [Example 286, 2-((S)-1-acryloyl-4-(2-(((S)-1-methylpyrrolidin-2-yl)methoxy)-7-(5,6,7,8-tetrahydronaphthalen-1-yl)pyridino[2,3-d]pyrimidin-4-yl)piperazin-2-yl)acetonitrile]
15 | – | 8.62 | 2.35% | 8.47 | C=CC(=O)N1CCN(c2nc(OC[C@@H]3CCCN3C)nc3c(F)c(-c4cccc5cccc(Cl)c45)ccc23)C[C@@H]1CC#N [Example 358, 2-((S)-1-acryloyl-4-(7-(8-chloronaphthalen-1-yl)-8-fluoro-2-(((S)-1-methylpyrrolidin-2-yl)methoxy)quinazolin-4-yl)piperazin-2-yl)acetonitrile]
16 | – | – | 11.6% | 8.82 | C=CC(=O)N1CCN(c2nc(OC[C@@]34CCCN3C[C@H](F)C4)nc3c(F)c(-c4cccc5cccc(Cl)c45)ccc23)C[C@@H]1CC#N [Example 367, 2-((2S)-1-acryloyl-4-(7-(8-chloronaphthalen-1-yl)-8-fluoro-2-((((2R,7aS)-2-fluorotetrahydro-1H-pyrrolizin-7a(5H))-yl)methoxy)quinazolin-4-yl)piperazin-2-yl)acetonitrile]
17 | – | 8.65 | – | 7.15 | C=CC(=O)N1CCN(c2nc(OC[C@@H]3CCCN3C)nc3cc(-c4cccc5cccc(Cl)c45)c(Cl)cc23)C[C@@H]1CC#N [Example 465, 2-((S)-1-acryloyl-4-(6-chloro-7-(8-chloronaphthalen-1-yl)-2-(((S)-1-methylpyrrolidin-2-yl)methoxy)quinazolin-4-yl)piperazin-2-yl)acetonitrile]
18 | – | 8.34 | – | 6.09 | C=CC(=O)N1CCN(c2nc(OC[C@@H]3CCCN3C)nc3cc(-c4cccc5ccc(F)c(Cl)c45)cnc23)C[C@@H]1CC#N [Example 840, 2-((S)-1-acryloyl-4-(7-(8-chloro-7-fluoronaphthalen-1-yl)-2-(((S)-1-methylpyrrolidin-2-yl)methoxy)pyridino[3,2-d]pyrimidin-4-yl)piperazin-2-yl)acetonitrile]
19 | – | 9.23 | – | 8.36 | C=CC(=O)N1CCN(c2nc(OCC3(CN4CCCC4)CC3)nc3c(F)c(-c4cccc5cccc(Cl)c45)ncc23)C[C@@H]1CC#N [Example 854, (S)-2-(1-acryloyl-4-(7-(8-chloronaphthalen-1-yl)-8-fluoro-2-((1-(pyrrolidin-1-ylmethyl)cyclopropyl)methoxy)pyridino[4,3-d]pyrimidin-4-yl)piperazin-2-yl)acetonitrile]
20 | – | 9.05 | 28.6% | 9.15 | C=C(F)C(=O)N1CCN(c2nc(OC[C@@H]3CCCN3C)nc3c(F)c(-c4cccc5cccc(Cl)c45)ccc23)C[C@@H]1CC#N [Example 903]
21 | – | – | 28.5% | 9.40 | C=C(F)C(=O)N1CCN(c2nc(OC[C@@]34CCCN3C[C@H](F)C4)nc3c(F)c(-c4cccc5ccc(F)c(Cl)c45)ccc23)C[C@@H]1CC#N [Example 914, 2-((S)-4-(7-(8-chloro-7-fluoronaphthalen-1-yl)-8-fluoro-2-((2R,7aS)-2-fluorotetrahydro-1H-pyrrolizin-7a(5H)-ylmethoxy)quinazolin-4-yl)-1-(2-fluoroacryloyl)piperazin-2-yl)acetonitrile]
